According to patent US8367687B2, “Pyrazole derivatives” (Novartis AG, priority 2007, dated 2013):
Read-outs that look alike come from different tables or passages of the source.

Legend:
Assay type in all cases: biochemical
[1] = target: CDK2 cyA (Homo sapiens, UniProt P24941); assay: CDK2 cyA IMAP
[2] = target: CDK4 (Homo sapiens, UniProt P11802); assay: CDK4 HTRF
[3] = target: hCDK1/B (Homo sapiens, UniProt P06493); assay: hCDK1/B
[4] = Table 2, read-out: CDK2cyA IMAP/ IC50
[5] = Table 2, read-out: CDK4 HTRF/ IC50
[6] = Table 1, read-out: CDK2 cyA IMAP

CDK4, sequence (P11802 whole entry): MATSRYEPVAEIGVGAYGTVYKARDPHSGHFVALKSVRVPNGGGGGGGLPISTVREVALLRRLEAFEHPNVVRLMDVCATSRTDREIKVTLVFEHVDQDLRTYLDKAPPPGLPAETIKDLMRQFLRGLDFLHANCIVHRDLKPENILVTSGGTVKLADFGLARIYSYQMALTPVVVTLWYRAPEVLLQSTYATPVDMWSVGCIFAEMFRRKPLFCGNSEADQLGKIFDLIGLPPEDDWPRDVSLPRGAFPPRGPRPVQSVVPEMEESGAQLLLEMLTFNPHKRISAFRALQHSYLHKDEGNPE
CDK4, sequence (P24385 whole entry partner): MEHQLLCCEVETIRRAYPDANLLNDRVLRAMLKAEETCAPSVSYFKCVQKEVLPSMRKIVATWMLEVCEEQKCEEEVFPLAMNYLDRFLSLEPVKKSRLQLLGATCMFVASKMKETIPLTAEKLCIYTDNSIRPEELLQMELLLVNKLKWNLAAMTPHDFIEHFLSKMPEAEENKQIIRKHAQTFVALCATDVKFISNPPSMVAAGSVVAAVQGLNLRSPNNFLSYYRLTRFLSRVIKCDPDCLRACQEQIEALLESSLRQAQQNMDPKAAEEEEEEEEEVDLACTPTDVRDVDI
hCDK1/B, sequence (P06493 whole entry): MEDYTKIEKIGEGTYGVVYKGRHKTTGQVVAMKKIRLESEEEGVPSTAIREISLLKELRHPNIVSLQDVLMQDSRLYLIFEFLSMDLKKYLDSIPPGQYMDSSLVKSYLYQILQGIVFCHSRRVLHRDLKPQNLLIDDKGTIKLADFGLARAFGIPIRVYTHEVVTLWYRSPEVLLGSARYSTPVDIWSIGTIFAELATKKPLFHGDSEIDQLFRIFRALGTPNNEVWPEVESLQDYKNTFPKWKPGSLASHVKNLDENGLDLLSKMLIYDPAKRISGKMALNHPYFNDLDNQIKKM
hCDK1/B, sequence (P14635 whole entry partner): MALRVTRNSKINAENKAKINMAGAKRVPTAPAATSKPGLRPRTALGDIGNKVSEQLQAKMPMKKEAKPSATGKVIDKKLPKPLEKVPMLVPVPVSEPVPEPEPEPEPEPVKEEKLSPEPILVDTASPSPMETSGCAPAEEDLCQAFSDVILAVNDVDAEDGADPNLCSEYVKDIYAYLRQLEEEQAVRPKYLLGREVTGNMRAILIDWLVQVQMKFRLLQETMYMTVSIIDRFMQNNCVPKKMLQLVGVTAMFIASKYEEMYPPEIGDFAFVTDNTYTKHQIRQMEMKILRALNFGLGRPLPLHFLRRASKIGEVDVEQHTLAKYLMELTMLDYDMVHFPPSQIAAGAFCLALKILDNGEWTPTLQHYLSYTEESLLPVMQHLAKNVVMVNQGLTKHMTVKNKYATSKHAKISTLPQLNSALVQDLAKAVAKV

IC50 [1, 4] | IC50 [2, 5] | IC50 ([3]; Table 2) | IC50 [1, 6] | IC50 ([2]; Table 1, read-out: CDK4 HTRF) | IC50 ([3]; Table 1) | Structure (SMILES)
< 1 µM | < 0.05 µM | < 0.5 µM |  |  |  | CC(C)c1n[nH]cc1-c1ccnc(NC2CCN(C(=O)OC(C)(C)C)CC2)n1 [Example 140]
< 10 µM | < 1 µM | < 10 µM |  |  |  | Cc1n[nH]cc1-c1ccnc(NC2CCN(Cc3ccccc3)C2)n1 (stereo not drawn) [Example 114]
 |  |  | < 5 µM | < 0.5 µM | < 5 µM | CCCCNc1cc(-c2cn[nH]c2C(C)C)ccn1 [Example 10]
< 5 µM | < 0.05 µM | < 1 µM |  |  |  | CC(C)c1n[nH]cc1-c1ccnc(NC(C)c2ccccc2)n1 (stereo not drawn) [Example 168]
< 10 µM | < 1 µM | < 5 µM |  |  |  | CC(C)c1n[nH]cc1-c1ccnc(NCCCN(C)C)n1 [Example 167]
< 5 µM | < 1 µM | < 5 µM |  |  |  | Cc1n[nH]cc1-c1ccnc(NC2CCCNC2)n1 (stereo not drawn) [Example 138]
< 5 µM | < 1 µM | < 5 µM |  |  |  | Cc1n[nH]cc1-c1ccnc(NC2CCCCCC2)n1 [Example 87]
 |  |  | < 0.5 µM | < 0.5 µM | < 1 µM | c1cc(-c2cn[nH]c2C2CCCC2)cc(NC2CCCC2)n1 [Example 3]
 |  |  | < 5 µM | < 5 µM | < 5 µM | Cc1cccc(CNc2cc(-c3cn[nH]c3C(C)C)ccn2)c1 [Example 49]
< 5 µM | < 0.5 µM | < 5 µM |  |  |  | Cc1cnc(NC2CCN(C)CC2)nc1-c1c[nH]nc1C(C)C [Example 184]
 |  |  | < 10 µM | < 1 µM | < 5 µM | CCC(CC)c1[nH]ncc1-c1ccnc(NC2CCN(C)CC2)c1 [Example 73]
< 10 µM | < 5 µM | < 15 µM |  |  |  | CC(C)c1n[nH]cc1-c1ccnc(NCCCNC2CCCCC2)n1 [Example 148]
< 5 µM | < 5 µM | < 5 µM |  |  |  | CC(C)c1n[nH]cc1-c1ccnc(NCc2ccc(N(C)C)cc2)n1 [Example 147]
 |  |  | < 0.5 µM | < 0.5 µM | < 0.5 µM | CC(C)CNc1cc(-c2cn[nH]c2C(C)C)ccn1 [Example 9]
 |  |  | ≥ 15 µM | < 0.5 µM | < 15 µM | CN1CCC(Nc2cc(-c3cn[nH]c3C3CC3)ccn2)CC1 [Example 80]
< 10 µM | < 0.5 µM | < 10 µM |  |  |  | Cc1n[nH]cc1-c1ccnc(NC2CCc3ccccc32)n1 (stereo not drawn) [Example 112]
< 5 µM | < 0.1 µM | < 5 µM |  |  |  | CC(C)c1n[nH]cc1-c1ccnc(N[C@H](C)c2ccccn2)n1 [Example 187]
 |  |  | < 5 µM | < 5 µM | < 5 µM | CCC(CC)c1[nH]ncc1-c1ccnc(NC2CCc3ccccc32)c1 (stereo not drawn) [Example 74]
 |  |  | < 5 µM | < 5 µM | < 5 µM | CC(C)c1[nH]ncc1-c1ccnc(NCCCO)c1 [Example 23]
< 1 µM | < 0.5 µM | < 1 µM |  |  |  | COCC(C)Nc1nccc(-c2c[nH]nc2C(C)C)n1 (stereo not drawn) [Example 152]
 |  |  | < 1 µM | < 0.1 µM | < 1 µM | c1ccc2c(c1)CC(Nc1cc(-c3cn[nH]c3C3CC3)ccn1)C2 [Example 69]
≥ 15 µM | < 0.5 µM | < 15 µM |  |  |  | CC(C)c1n[nH]cc1-c1ccnc(NCCN2CCCCC2)n1 [Example 173]

IC50 [1, 4] | IC50 [2, 5] | IC50 ([3]; Table 2) | IC50 [1, 6] | IC50 ([2]; Table 1, read-out: CDK4 HTRF) | IC50 ([3]; Table 1) | Structure (SMILES)
 |  |  | < 1 µM | < 0.5 µM | < 5 µM | c1cc(-c2cn[nH]c2C2CCCC2)cc(NC2CCCCCC2)n1 [Example 55]
 |  |  | < 1 µM | < 5 µM | < 5 µM | c1ccc2c(c1)CC(Nc1cc(-c3cn[nH]c3C3CCCCCC3)ccn1)C2 [Example 67]
 |  |  | < 5 µM | < 1 µM | < 10 µM | CC(C)c1[nH]ncc1-c1ccnc(NCCc2ccccn2)c1 [Example 29]
> 15 µM | < 0.5 µM | ≥ 15 µM |  |  |  | CC(C)c1n[nH]cc1-c1ccnc(NC2CCCc3cccnc32)n1 (stereo not drawn) [Example 186]
< 5 µM | < 0.5 µM | < 5 µM |  |  |  | CC(C)c1nn(C)cc1-c1ccnc(NC2CCN(C)CC2)n1 [Example 181]
 |  |  | < 5 µM | < 0.1 µM | < 5 µM | Cc1ccccc1CNc1cc(-c2cn[nH]c2C2CC2)ccn1 [Example 68]
< 15 µM | < 0.5 µM | < 10 µM |  |  |  | Cc1nnc(C(C)Nc2nccc(-c3c[nH]nc3C(C)C)n2)[nH]1 (stereo not drawn) [Example 162]
 |  |  | < 5 µM | < 0.5 µM | < 5 µM | CC(C)c1[nH]ncc1-c1ccnc(NCC2CC2)c1 [Example 8]
 |  |  | < 1 µM | < 0.5 µM | < 5 µM | c1cc(-c2cn[nH]c2C2CCCC2)cc(NC2CCCCC2)n1 [Example 54]
 |  |  | < 5 µM | < 0.5 µM | < 5 µM | c1cncc(CCNc2cc(-c3cn[nH]c3C3CCCC3)ccn2)c1 [Example 59]
< 5 µM | < 1 µM | < 5 µM |  |  |  | Cc1n[nH]cc1-c1ccnc(NC2CCCCC2)n1 [Example 84]
 |  |  | < 15 µM | < 0.5 µM | < 10 µM | CC(C)c1[nH]ncc1-c1ccnc(NC(CO)C(C)C)c1 (stereo not drawn) [Example 46]
< 10 µM | < 5 µM | < 5 µM |  |  |  | Cc1n[nH]cc1-c1ccnc(NCCCn2ccnc2)n1 [Example 106]
 |  |  | < 5 µM | < 5 µM | < 5 µM | CC(C)c1[nH]ncc1-c1ccnc(NCc2ccc(F)cc2)c1 [Example 30]
 |  |  | < 5 µM | < 1 µM | < 5 µM | COCCCNc1cc(-c2cn[nH]c2C(C)C)ccn1 [Example 11]
< 5 µM | < 1 µM | < 5 µM |  |  |  | CC(CCc1ccccc1)Nc1nccc(-c2c[nH]nc2C(C)C)n1 (stereo not drawn) [Example 155]
< 0.5 µM | < 1 µM | < 0.5 µM |  |  |  | CC(C)c1n[nH]cc1-c1ccnc(NCc2ccccc2F)n1 [Example 165]
 |  |  | < 5 µM | < 5 µM | < 5 µM | Cc1cccc(CNc2cc(-c3cn[nH]c3C3CCCC3)ccn2)c1 [Example 62]
 |  |  | < 5 µM | < 1 µM | < 5 µM | CC(C)c1[nH]ncc1-c1ccnc(NCc2ccccc2C(F)(F)F)c1 [Example 50]
 |  |  | < 15 µM | < 15 µM | ≥ 15 µM | CN1CCC(Nc2cc(-c3cn[nH]c3C(C)(C)C)ccn2)CC1 [Example 77]
 |  |  | < 5 µM | < 0.5 µM | < 5 µM | Cc1ccccc1CNc1cc(-c2cn[nH]c2C2CCCC2)ccn1 [Example 60]
 |  |  | < 1 µM | < 0.5 µM | < 5 µM | c1cc(-c2cn[nH]c2C2CCCC2)cc(NC2CC2)n1 [Example 53]

IC50 [1, 4] | IC50 [2, 5] | IC50 ([3]; Table 2) | IC50 [1, 6] | IC50 ([2]; Table 1, read-out: CDK4 HTRF) | IC50 ([3]; Table 1) | Structure (SMILES)
 |  |  | < 5 µM | < 1 µM | < 5 µM | CC(C)CCNc1cc(-c2cn[nH]c2C(C)C)ccn1 [Example 12]
< 5 µM | < 1 µM | < 5 µM |  |  |  | CC(C)c1n[nH]cc1-c1nc(NC2CCN(C)CC2)ncc1Br [Example 180]
< 5 µM | < 5 µM | < 5 µM |  |  |  | Cc1n[nH]cc1-c1ccnc(NCC(C)C)n1 [Example 92]
 |  |  | < 5 µM | < 1 µM | < 5 µM | CC(C)c1[nH]ncc1-c1ccnc(NCc2cc(F)cc(F)c2)c1 [Example 38]
 |  |  | < 1 µM | < 0.5 µM | < 5 µM | CC(C)CNc1cc(-c2cn[nH]c2C2CCCC2)ccn1 [Example 56]
< 5 µM | < 1 µM | < 5 µM |  |  |  | Cc1n[nH]cc1-c1ccnc(NC2CCCC2)n1 [Example 86]
 |  |  | ≥ 15 µM | < 0.5 µM | < 15 µM | CC(C)c1[nH]ncc1-c1ccnc(NC2CCN(Cc3ccccc3)CC2)c1 [Example 45]
< 5 µM | < 0.5 µM | < 1 µM |  |  |  | CC(C)COCCCNc1nccc(-c2c[nH]nc2C(C)C)n1 [Example 150]
 |  |  | < 5 µM | < 1 µM | < 5 µM | c1cc(-c2cn[nH]c2C2CCCC2)cc(NCC2CC2)n1 [Example 57]
< 5 µM | < 5 µM | < 5 µM |  |  |  | CC(C)c1n[nH]cc1-c1ccnc(NCc2ccccc2C(F)(F)F)n1 [Example 154]
 |  |  | < 1 µM | < 5 µM | < 0.5 µM | CC(C)c1[nH]ncc1-c1ccnc(NCCCn2ccnc2)c1 [Example 41]
 |  |  | < 1 µM | < 0.5 µM | < 5 µM | CCC(C)Nc1cc(-c2cn[nH]c2C(C)C)ccn1 (stereo not drawn) [Example 26]
 |  |  | < 5 µM | < 0.5 µM | < 5 µM | CC(C)c1[nH]ncc1-c1ccnc(NCCc2cccnc2)c1 [Example 15]
< 0.5 µM | < 0.05 µM | < 0.5 µM |  |  |  | CC(C)c1n[nH]cc1-c1ccnc(NC2CCN(c3ccccc3)CC2)n1 [Example 172]
 |  |  | < 5 µM | < 5 µM | < 5 µM | CCC(C)c1[nH]ncc1-c1ccnc(NC2CCc3ccccc32)c1 (stereo not drawn) [Example 82]
 |  |  | < 0.5 µM | < 0.5 µM | < 1 µM | CC(C)c1[nH]ncc1-c1ccnc(NC2CCCCCC2)c1 [Example 40]
 |  |  | < 10 µM | < 5 µM | < 10 µM | COCCNc1cc(-c2cn[nH]c2C(C)C)ccn1 [Example 5]
 |  |  | ≥ 15 µM | < 10 µM | ≥ 15 µM | CC(C)c1[nH]ncc1-c1ccnc(NCCCN2CCCC2)c1 [Example 19]
 |  |  | < 5 µM | < 0.5 µM | < 5 µM | c1ccc2c(c1)CCC2Nc1cc(-c2cn[nH]c2C2CC2)ccn1 (stereo not drawn) [Example 70]
 |  |  | < 0.5 µM | < 0.5 µM | < 1 µM | CC(C)c1[nH]ncc1-c1ccnc(NC2CCCCC2)c1 [Example 7]
≥ 15 µM | < 0.5 µM | < 10 µM |  |  |  | CC(CN(C)C)Nc1nccc(-c2c[nH]nc2C(C)C)n1 (stereo not drawn) [Example 143]
 |  |  | < 10 µM | < 5 µM | < 5 µM | CC(C)c1[nH]ncc1-c1ccnc(NCC2CCCO2)c1 (stereo not drawn) [Example 13]
